Reference: patent publication US20170112789A1, “INTRAVENOUS BACLOFEN AND METHODS OF TREATMENT” (Allaysis, LLC, priority 2015, published 2017)

Experiments:
[1] = Pharmacokinetics and bioavailability of oral vs intravenous baclofen, randomized open-label 2-way crossover study (Example 3); assay type: in vivo, human; settings: for Cmax: single dose
Protocol: (§1) Twelve healthy human volunteers were recruited. The volunteers were medication free for 48 hours before, during, and 24 hours after the administration of the study drug.
(§2) The 12 volunteers participated in a randomized, open-label, 2-way crossover study to compare the pharmacokinetics and bioavailability of oral baclofen with an intravenous baclofen formulation. The oral formulation was a 10 mg baclofen tablet. A single intravenous dose of 5 mg was administered over 15 minutes, using the commercially available 2 mg/mL intrathecal baclofen formulation (Lioresal Intrathecal). Blood samples (6 mL) for the measurement of plasma concentrations of baclofen were collected in blood collection tubes containing K2 ethylenediaminetetraacetic acid at the following times: prior to dosing; at 5, 15, and 30 minutes; and at 1, 2, 4, 6, 8, 10, 12, and 24 hours after drug administration.
Study plasma samples were prepared by adding 50 μL of a 500 μg/mL levetiracetam solution (internal standard) to 250 μL of K2 ethylenediaminetetraacetic acid (EDTA) human plasma. Baclofen and the internal standard were extracted from plasma by precipitating the protein with methanol and drying it under nitrogen at approximately 40° C. The dried residues were reconstituted in 300 μL of a mobile phase consisting of 20 mM ammonium acetate-methanol (75:25) solution. After 1 minute of vortex mixing, the reconstituted sample solution was filtered and injected onto the high-performance liquid chromatograph-mass spectrometer system. Standard curve samples over a range of 20 to 400 ng/mL baclofen and quality control samples containing 30 (low), 80 (medium), and 240 ng/mL (high) baclofen were prepared and analyzed in triplicate along with the study samples. The assay was linear over the range 20-400 ng/mL with a lower limit of quantification of 20 ng/mL.
Baclofen concentration-time data were analyzed using a noncompartmental pharmacokinetic approach with Phoenix software (version 6.2; Pharsight Corporation, Mountain View, Calif.). The terminal rate constant (λz) was determined from the slope of the terminal log-linear portion of the plasma concentration-time curve, and the terminal half-life (t1/2) was calculated as In 2/(λz). Maximum plasma concentrations (Cmax) and time to maximum concentration (Tmax) were determined by direct observation of the data. The area under the concentration-time curve to the last nonzero plasma concentration (Clast) that was above half the lower limit of quantification (10 ng/mL) was calculated by the trapezoidal rule and reported as AUClast The area under the concentration-time curve extrapolated to infinity (AUC0-∞) was calculated as AUClast+(Clast/λz). Mean and standard deviation values for the parameters were also obtained using the descriptive statistics tool in Phoenix version 6.2. A paired t-test was used to determine if statistical differences existed in log normalized, dose-adjusted area under the curve between oral and intravenous arms.

healthy human volunteers = experiment: Tolerability of the intravenous formulation in the crossover study (Example 3); assay type: in vivo
Protocol: as §1, §2

[2] = Pharmacokinetics of oral and intravenous baclofen at clinically relevant doses, dose escalation crossover study (Example 4); assay type: in vivo, human; settings: for Cmax / half-life / bioavailability: human, plasma
Protocol: (§3) Thirty-six healthy adults participated in the study.
(§4) The thirty-six subjects were enrolled in a randomized, open-label, cross over study to evaluate the safety profile and pharmacokinetics of oral and an investigational intravenous baclofen formulation at clinically relevant doses. Three cohorts of twelve subjects received single doses of baclofen: 7.5, 11.5 or 15 mg intravenously and 10, 15, or 20 mg taken orally with a 48 hour washout phase. The highest dosing cohort received an additional 15 mg extended (60 minute) infusion. Blood samples for baclofen pharmacokinetic analysis were collected pre-dose and at regular intervals over a 24 hour time period. Over this 24 hour period subjects were assessed for sedation, nystagmus and ataxia to evaluate clinical response. Maximum concentration (Cmax) and time to maximum concentration (Tmax) were determined by visual inspection. Noncompartmental pharmacokinetic analyses were used to estimate area under the curve (AUC), half life (t1/2), clearance (CL) and volume of distribution. Absolute bioavailability was calculated using dose normalized oral and intravenous AUCs. Dose proportionality was assessed using analysis of variance (ANOVA) and a power model. Bioequivalence was evaluated using Phoenix Software (Centara, Pharsight Corporation, Mountain View, Calif.).

healthy adults = experiment: Tolerability/safety (sedation, nystagmus, ataxia) in the dose escalation study (Example 4); assay type: in vivo, human; settings: for subjects with asymptomatic nystagmus: 10 minute infusion, of twelve subjects
Protocol: as §3, §4

[3] = cited from earlier work
[4] = human, plasma, 5 mg IV, mean ± SD
[5] = human, plasma, 10 mg oral, mean ± SD
[6] = iv, 7.5 mg, IV 10 min infusion 7.5 mg, mean
[7] = iv, 11.5 mg, IV 10 min infusion 11.5 mg, mean
[8] = iv, 15 mg, IV 10 min infusion 15 mg, mean
[9] = iv, 15 mg, IV 60 min infusion 15 mg, mean

time point of observed maximum baclofen concentration ([1]; 5 mg IV formulation): 5 min
AUC0-∞/Dose ([1]; 5 mg IV, mean ± SD): 141 ± 33 ng·h/mL/mg
AUC0-∞/Dose ([1]; 10 mg oral, mean ± SD): 102 ± 23 ng·h/mL/mg
T1/2 ([1]; 10 mg oral, mean ± SD): 4.03 ± 0.73 h
half-life ([1]; human, plasma, iv, 5 mg, 5 mg IV, mean ± SD): 4.52 h
bioavailability ([1]; human, plasma, oral, 10 mg, 10 mg oral tablet, absolute, vs 5 mg IV, mean ± SD): 74%
half-life ([1]; human, plasma, po, 10 mg, 10 mg oral, mean ± SD): 4 h
AUC(0-inf) [1, 4]: 707 ± 166 ng·h/mL
AUC(0-t) [1, 4]: 593 ± 111 ng·h/mL
AUC(0-inf) [1, 5]: 1020 ± 232 ng·h/mL
AUC(0-t) [1, 5]: 878 ± 199 ng·h/mL
Tmax ([1]; human, plasma, 10 mg oral, median (min, max)): 1 h
Cmax ([1]; human, 5 mg IV over 15 minutes, plasma, mean ± SD, 12 volunteers): 310 ng/mL
Cmax ([1]; human, 10 mg oral tablet, plasma, mean ± SD): 174 ng/mL
Cmax ration ([2]; 15 mg intravenous infusion over 10 minutes vs oral): 263%
Cmax ration ([2]; 15 mg intravenous infusion over 60 minutes vs oral): 149%
AUC(0-inf) ([2]; IV 10 min infusion 7.5 mg, mean): 562 ng·h/mL
AUC(0-inf) ([2]; IV 10 min infusion 11.5 mg, mean): 1186 ng·h/mL
AUC(0-inf) ([2]; IV 10 min infusion 15 mg, mean): 1520 ng·h/mL
AUC(0-inf) ([2]; IV 60 min infusion 15 mg, mean): 1447 ng·h/mL
AUC(0-inf) ([2]; PO 10 mg, mean): 714 ng·h/mL
AUC(0-inf) ([2]; PO 15 mg, mean): 1201 ng·h/mL
AUC(0-inf) ([2]; PO 20 mg, mean): 1598 ng·h/mL
dose proportionality of mean Cmax ([2]; both forms of administration, ANOVA and power model): increased proportionally with dose
Cmax [2, 6]: 310 ng/mL
half-life [2, 6]: 3.37 h
Cmax [2, 7]: 524 ng/mL
half-life [2, 7]: 4.97 h
Cmax [2, 8]: 720 ng/mL
half-life [2, 8]: 5.82 h
Cmax [2, 9]: 382 ng/mL
half-life [2, 9]: 6.22 h
bioavailability ([2]; oral, data from all cohorts combined, read-out: mean bioavailability): 89%
Cmax ([2]; po, 10 mg, PO 10 mg, mean): 124 ng/mL
half-life ([2]; po, 10 mg, PO 10 mg, mean): 3.94 h
Cmax ([2]; po, 15 mg, PO 15 mg, mean): 201 ng/mL
half-life ([2]; po, 15 mg, PO 15 mg, mean): 4.65 h
Cmax ([2]; po, 20 mg, PO 20 mg, mean): 255 ng/mL
half-life ([2]; po, 20 mg, PO 20 mg, mean): 5.49 h
bioavailability ([2]; po, data from all cohorts combined, read-out: absolute oral bioavailability, range): 42 to 132%
bioavailability ([2]; PO 10 mg (cohort 1), mean, read-out: Bioavailability): 102%
bioavailability ([2]; PO 15 mg (cohort 2), mean, read-out: Bioavailability): 80%
bioavailability ([2]; PO 20 mg (cohort 3), mean, read-out: Bioavailability): 85%
SMILES: NCC(CC(=O)O)c1ccc(Cl)cc1 (racemic) [Baclofen, 4-amino-3-(4-chlorophenyl) butanoic acid]
tolerability of the intravenous formulation (healthy human volunteers; 5 mg IV over 15 minutes): well tolerated
severity of treatment-emergent adverse events (healthy human volunteers; characterized by the investigator): mild in severity
time for all subjects to return to baseline values after drug administration (healthy human volunteers; in vivo): ≤ 6 h
dose proportionality of AUC ([2]; ANOVA and power model analysis): greater than proportional increase with dose
bioequivalence of oral and intravenous doses ([2]; based on AUC and Cmax): bioequivalent based on AUC, but not based on Cmax
subjects with asymptomatic nystagmus (healthy adults; 7.5 mg): two
subjects with asymptomatic nystagmus (healthy adults; 11.5 mg): six
occurrence of nystagmus (healthy adults; 15 mg 60 minute infusion): not observed
subjects with asymptomatic nystagmus (healthy adults; 15 mg): six
ataxia (healthy adults; after the 20 mg oral dose): one subject experienced mild transient ataxia
tolerability (healthy adults; all oral and IV doses): generally well tolerated
sedation, changes from baseline (healthy adults; by route of administration or by dose): not statistically significant
adverse effects (healthy adults; following both oral and intravenous doses): Mild, self-limited adverse effects
solubility in water [3]: slightly soluble in water
